In ChEMBL document CHEMBL1201862, “PubChem BioAssay data set” (2004):
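Cells were grown in 96-well plates and exposed to each compound for 48 hours at five concentrations; endpoints were interpolated linearly between bracketing concentrations, or set to the highest concentration if not reached. At the GI50, growth is halved.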 Activity calls are given as the source filed them. No stated cut-off is given here; in the data, active = GI50 up to about 1.1 µM and inactive = higher.

Columns and labels:
Assay in all cases: NCI tumour cell line growth inhibition, 48 h
[1] = tested on: HOP-92
[2] = tested on: SW-620
[3] = tested on: OVCAR-3
[4] = tested on: OVCAR-4
[5] = tested on: HT-29
[6] = tested on: UACC-257
[7] = tested on: 786-0
[8] = tested on: NCI-H23
[9] = tested on: COLO 205
[10] = tested on: OVCAR-5
[11] = tested on: UO-31
[12] = tested on: NCI-H460
[13] = tested on: SF-539
[14] = tested on: CAKI-1
[15] = tested on: RPMI-8226
[16] = tested on: SK-MEL-5
[17] = tested on: HCC 2998
[18] = tested on: ACHN
[19] = tested on: NCI-H226

SMILES	GI50 [1]	GI50 [2]	GI50 [3]	GI50 [4]	GI50 [5]	GI50 [6]	GI50 [7]	GI50 [8]	GI50 [9]	GI50 [10]	GI50 [11]	GI50 [12]	GI50 [13]	GI50 [14]	GI50 [15]	GI50 [16]	GI50 [17]	GI50 [18]	GI50 [19]
O=C1c2ccccc2C(=O)C1(O)c1c[nH]c2ccccc12	> 100 µM (inactive)	> 100 µM (inactive)	> 100 µM (inactive)	> 100 µM (inactive)	> 100 µM (inactive)	> 100 µM (inactive)	> 100 µM (inactive)	> 100 µM (inactive)	> 100 µM (inactive)	> 100 µM (inactive)	> 100 µM (inactive)	> 100 µM (inactive)	> 100 µM (inactive)	> 100 µM (inactive)	> 100 µM (inactive)	–	–	–	–
C=CCCC(=O)CC(=O)OCc1ccccc1	> 100 µM (inactive)	> 100 µM (inactive)	> 100 µM (inactive)	> 100 µM (inactive)	> 100 µM (inactive)	> 100 µM (inactive)	> 100 µM (inactive)	8.47 µM (inactive)	> 100 µM (inactive)	> 100 µM (inactive)	> 100 µM (inactive)	> 100 µM (inactive)	> 100 µM (inactive)	> 100 µM (inactive)	> 100 µM (inactive)	> 100 µM (inactive)	> 100 µM (inactive)	> 100 µM (inactive)	–
N#CC(Nc1cccc(C(F)(F)F)c1)c1ccccc1C(F)(F)F (stereo unspecified)	–	3.08 µM (inactive)	6.52 µM (inactive)	5.58 µM (inactive)	13.7 µM (inactive)	14.6 µM (inactive)	–	13.9 µM (inactive)	3.26 µM (inactive)	14.8 µM (inactive)	17.9 µM (inactive)	15.5 µM (inactive)	18.4 µM (inactive)	2.73 µM (inactive)	–	18 µM (inactive)	7.78 µM (inactive)	14.5 µM (inactive)	15.9 µM (inactive)
CC(C)C1=CC23CCC4C(C)(C(=O)O)CCCC4(C)C2CC1C1C(=O)N(CCCCCCN2C(=O)C4C5CC6C7(C)CCCC(C)(C(=O)O)C7CCC6(C=C5C(C)C)C4C2=O)C(=O)C13 (stereo unspecified)	21.7 µM (inactive)	15.9 µM (inactive)	13.9 µM (inactive)	15.7 µM (inactive)	3.84 µM (inactive)	–	> 10 µM (inactive)	2.74 µM (inactive)	> 10 µM (inactive)	22.4 µM (inactive)	> 10 µM (inactive)	–	> 10 µM (inactive)	–	13.7 µM (inactive)	14 µM (inactive)	12.7 µM (inactive)	10.9 µM (inactive)	> 10 µM (inactive)
O=C(O)CSc1ccc2nc3ccccc3c(O)c2c1	> 100 µM (inactive)	> 100 µM (inactive)	> 100 µM (inactive)	> 100 µM (inactive)	> 100 µM (inactive)	> 100 µM (inactive)	> 100 µM (inactive)	> 100 µM (inactive)	> 100 µM (inactive)	> 100 µM (inactive)	> 100 µM (inactive)	> 100 µM (inactive)	–	> 100 µM (inactive)	> 100 µM (inactive)	> 100 µM (inactive)	> 100 µM (inactive)	> 100 µM (inactive)	> 100 µM (inactive)
CCCCCCCC/C=C/CCCCCCCC(=O)N(O)C1CC(n2cc(C)c(=O)[nH]c2=O)OC1CO (stereo unspecified)	13.8 µM (inactive)	11 µM (inactive)	7.33 µM (inactive)	11.2 µM (inactive)	10.2 µM (inactive)	13.2 µM (inactive)	4.46 µM (inactive)	10.6 µM (inactive)	4.8 µM (inactive)	10.4 µM (inactive)	3.96 µM (inactive)	3.85 µM (inactive)	11.6 µM (inactive)	8.99 µM (inactive)	9.68 µM (inactive)	7.18 µM (inactive)	10.6 µM (inactive)	6.03 µM (inactive)	–
COc1cc2c(cc1OC)C(=O)Cc1ccc3c(c1CNCC2)OCO3	–	> 100 µM (inactive)	> 100 µM (inactive)	> 100 µM (inactive)	> 100 µM (inactive)	> 100 µM (inactive)	> 100 µM (inactive)	> 100 µM (inactive)	> 100 µM (inactive)	> 100 µM (inactive)	> 100 µM (inactive)	> 100 µM (inactive)	> 100 µM (inactive)	> 100 µM (inactive)	> 100 µM (inactive)	> 100 µM (inactive)	> 100 µM (inactive)	> 100 µM (inactive)	–
CCOC(=O)c1ccc(O)cc1 [ETHYLPARABEN]	> 100 µM (inactive)	> 100 µM (inactive)	–	> 100 µM (inactive)	> 100 µM (inactive)	> 100 µM (inactive)	> 100 µM (inactive)	> 100 µM (inactive)	> 100 µM (inactive)	> 100 µM (inactive)	> 100 µM (inactive)	> 100 µM (inactive)	> 100 µM (inactive)	> 100 µM (inactive)	> 100 µM (inactive)	–	> 100 µM (inactive)	> 100 µM (inactive)	> 100 µM (inactive)
OCC12C=CC(C1)c1ccccc12 (stereo unspecified)	> 100 µM (inactive)	> 100 µM (inactive)	> 100 µM (inactive)	> 100 µM (inactive)	> 100 µM (inactive)	> 100 µM (inactive)	> 100 µM (inactive)	> 100 µM (inactive)	> 100 µM (inactive)	> 100 µM (inactive)	> 100 µM (inactive)	> 100 µM (inactive)	–	> 100 µM (inactive)	> 100 µM (inactive)	> 100 µM (inactive)	> 100 µM (inactive)	> 100 µM (inactive)	> 100 µM (inactive)
CCC1=C(C(C)=O)[C@@H]2CCCCC[C@@H](C(=O)OC)C2C1=O (stereo partly specified)	> 100 µM (inactive)	> 100 µM (inactive)	–	> 100 µM (inactive)	> 100 µM (inactive)	> 100 µM (inactive)	> 100 µM (inactive)	> 100 µM (inactive)	> 100 µM (inactive)	> 100 µM (inactive)	> 100 µM (inactive)	> 100 µM (inactive)	> 100 µM (inactive)	> 100 µM (inactive)	> 100 µM (inactive)	> 100 µM (inactive)	> 100 µM (inactive)	> 100 µM (inactive)	–
CC(C)c1cccc2sc(NC(=O)C(=O)C(C#N)c3cccc4ccccc34)nc12 (stereo unspecified)	30.4 µM (inactive)	> 100 µM (inactive)	41.7 µM (inactive)	29.8 µM (inactive)	77.4 µM (inactive)	92.3 µM (inactive)	> 100 µM (inactive)	61.5 µM (inactive)	> 100 µM (inactive)	–	31.4 µM (inactive)	> 100 µM (inactive)	20.7 µM (inactive)	30.5 µM (inactive)	–	68.1 µM (inactive)	65.8 µM (inactive)	69.8 µM (inactive)	71.1 µM (inactive)
CC(C)[C@@H](C)CC[C@@H](C)C1CC=C2[C@@H]3CCC4C[C@@H](O[Si](C)(C)C(C)(C)C)CC[C@]4(C)C3CC[C@@]21C (stereo partly specified)	–	> 100 µM (inactive)	> 100 µM (inactive)	> 100 µM (inactive)	–	> 100 µM (inactive)	> 100 µM (inactive)	–	> 100 µM (inactive)	–	> 100 µM (inactive)	> 100 µM (inactive)	> 100 µM (inactive)	> 100 µM (inactive)	> 100 µM (inactive)	> 100 µM (inactive)	> 100 µM (inactive)	> 100 µM (inactive)	> 100 µM (inactive)
CCC1(O)C[C@H]2CN(CCCc3c([nH]c4ccccc34)[C@@](C(=O)OC)(c3cc4c(cc3OC)N(C)C3[C@](O)(C(=O)OC)[C@H](OC(C)=O)[C@]5(CC)C=CCN6CC[C@]43[C@H]65)C2)C1 (stereo partly specified)	> 10 µM (inactive)	0.497 µM (active)	0.281 µM (active)	0.353 µM (active)	0.425 µM (active)	1.34 µM (inactive)	0.589 µM (active)	0.743 µM (active)	0.593 µM (active)	3.34 µM (inactive)	4.38 µM (inactive)	0.557 µM (active)	0.991 µM (active)	2.33 µM (inactive)	0.908 µM (active)	0.333 µM (active)	1.75 µM (inactive)	> 2.92 µM (inactive)	–
COc1ccc(-c2ccc(CC(=O)O)cc2)cc1OC	> 100 µM (inactive)	> 100 µM (inactive)	> 100 µM (inactive)	> 100 µM (inactive)	> 100 µM (inactive)	> 100 µM (inactive)	> 100 µM (inactive)	> 100 µM (inactive)	> 100 µM (inactive)	> 100 µM (inactive)	> 100 µM (inactive)	> 100 µM (inactive)	–	> 100 µM (inactive)	> 100 µM (inactive)	> 100 µM (inactive)	–	> 100 µM (inactive)	> 100 µM (inactive)
Cc1ccc(N2C(=O)C(=CN)C(=O)N(c3ccc(C)cc3)C2=O)cc1	31.1 µM (inactive)	> 100 µM (inactive)	65.9 µM (inactive)	> 100 µM (inactive)	> 100 µM (inactive)	> 100 µM (inactive)	> 100 µM (inactive)	> 100 µM (inactive)	> 100 µM (inactive)	> 100 µM (inactive)	53.5 µM (inactive)	> 100 µM (inactive)	> 100 µM (inactive)	31.8 µM (inactive)	–	> 100 µM (inactive)	10 µM (inactive)	37.9 µM (inactive)	> 100 µM (inactive)
CC1=CCC2(C#N)CCC1C2O (stereo unspecified)	–	–	> 100 µM (inactive)	> 100 µM (inactive)	> 100 µM (inactive)	> 100 µM (inactive)	64.1 µM (inactive)	–	> 100 µM (inactive)	> 100 µM (inactive)	> 100 µM (inactive)	> 100 µM (inactive)	> 100 µM (inactive)	> 100 µM (inactive)	> 100 µM (inactive)	> 100 µM (inactive)	> 100 µM (inactive)	> 100 µM (inactive)	> 100 µM (inactive)
